Test [1] concerns the target T1, HbpA; 2-hydroxybiphenyl 3-monooxygenase (Pseudomonas nitroreducens, UniProt O06647).
T1 construct: full length with uncleaved N-terminal His6 tag, spacer and 3C site (21 residues longer than native); pET-YSBLIC-3C, E. coli BL21(DE3); homotetramer; tag not removed for crystals
T1 sequence (O06647 1-586): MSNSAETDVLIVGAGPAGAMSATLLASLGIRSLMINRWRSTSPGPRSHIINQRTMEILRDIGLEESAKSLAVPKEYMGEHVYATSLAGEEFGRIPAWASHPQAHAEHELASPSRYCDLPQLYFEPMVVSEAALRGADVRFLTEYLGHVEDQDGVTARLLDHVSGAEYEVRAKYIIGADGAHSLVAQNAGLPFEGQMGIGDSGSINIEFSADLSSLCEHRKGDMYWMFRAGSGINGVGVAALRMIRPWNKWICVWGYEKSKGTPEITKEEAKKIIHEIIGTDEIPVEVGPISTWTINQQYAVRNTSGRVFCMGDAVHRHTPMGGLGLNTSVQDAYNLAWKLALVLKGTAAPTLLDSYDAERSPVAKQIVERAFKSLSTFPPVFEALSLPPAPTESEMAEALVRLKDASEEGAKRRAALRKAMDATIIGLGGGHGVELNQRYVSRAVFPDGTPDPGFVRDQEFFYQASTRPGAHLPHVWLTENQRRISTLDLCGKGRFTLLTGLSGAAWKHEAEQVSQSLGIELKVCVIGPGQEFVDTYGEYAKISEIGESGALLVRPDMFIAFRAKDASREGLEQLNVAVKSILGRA
In words: X-ray crystal structure, […] Å, FAD soak. In kind it is binding. The following applies: crystals soaked in 1 mM FAD; flavin in the "in" position.

Test [2] deals with T1, HbpA; 2-hydroxybiphenyl 3-monooxygenase. In words: UV spectrophotometry of NADH oxidation at […] nm. The format is biochemical. The following applies: co-substrate NADH; air-saturated buffer; read-out: WT.
The target in test [3] is 2-hydroxybiphenyl 3-monooxygenase (HbpA) from Pseudomonas azelaica HBP1 (Pseudomonas azelaica HBP1). In words: crystal structure; P1 crystals with four molecules in the asymmetric unit (one tetramer); apo form and FAD complex (crystals soaked in 1 mM FAD); grown in 18 % PEG 3350, 0.15 M KSCN, Bis-Tris propane pH 5.5, protein 10 mg/mL.

The values below come from publication PMC4515095, “Structures of the Apo and FAD-Bound Forms of 2-Hydroxybiphenyl 3-monooxygenase (HbpA) Locate Activity Hotspots Identified by Using Directed Evolution” (Chembiochem, 2015).

Take `Cc1cc2nc3c(=O)[nH]c(=O)nc-3n(C[C@H](O)[C@H](O)[C@H](O)COP(=O)(O)OP(=O)(O)OC[C@H]3O[C@@H](n4cnc5c(N)ncnc54)[C@H](O)[C@@H]3O)c2cc1C` [FAD]: in test [1], the “X-ray crystal structure, 2.03 Å, FAD soak” value is “both apo-HbpA and the FAD complex have been deposited in the Protein Data Bank”. Consider `Oc1ccccc1-c1ccccc1` [2HBP], for which, in test [2], the Km was 3.3 ± 0.2 µM. Turning to “2-hydroxybiphenyl 3-monooxygenase (HbpA) from Pseudomonas azelaica HBP1 (enzyme)”, the stoichiometry N in test [3] turned out to be 4.
